Source: patent US20100003217A1, “Compounds and Pharmaceutical Compositions for the Treatment of Viral Infections” (priority 2008, published 2010)
Values joined by “and” are separate entries in the source; they are usually repeats but may differ in a detail not shown here. Equal values may be shown once.

System: rat primary hepatocytes
Assay: Metabolic disposition of [^14C]-Compound 1 and [^14C]-2′-C-methyl guanosine in rat primary hepatocytes (incubation medium, cellular extracts, nucleotide levels)
Type: in vitro ADME, Sprague Dawley rat
Procedure: Primary hepatocytes: Freshly isolated cells from animal and human liver were obtained in suspension on ice. Cells were pelleted by centrifugation at 70-75×g (rat) or 95-90×g (monkey and human) and resuspended at 0.8 million cells per mL of platting medium (William's E supplemented with 5% FBS, 0.5% penicillin-streptomycin, 1% L-glutamine, 4 μg/mL insulin and 1 μM dexamethasone). Multi-well collagen I-coated plates (rat tail collagen type I; 12- or 6-well) were then seeded by addition of 1 mL (12-well; 0.8 million cells/well) or 2 mL (6-well; 1.6 million cells/well) of cell suspension. The plates were gently shaken to evenly distribute the cells and placed in an incubator at 37° C. for approximately 4 to 6 hours to allow cells to attach. Once cells were attached, the platting medium was removed and replaced with hepatocyte culture medium (William's E supplemented with penicillin-streptomycin, 1% L-glutamine, 1% insulin-transferrin-selenium and 0.1 μM dexamethasone). Cells were left overnight in an incubator at 37° C. to acclimatize to culture and the medium.
Hepatocyte incubations with radiolabeled Compound 1 and 2′-C-methyl guanosine, both labeled in the C-8 position of the guanine moiety, were conducted at a final volume of 2.0 mL hepatocyte culture medium/well ([…]). Culture medium from overnight incubation of cells was removed and replaced with fresh medium, pre-warmed to 37° C., containing 1 or 10 μM [^14C]-Compound 1 ([…]) or [^14C]-2′-C-methyl guanosine (127 DPM/μmol) from a stock solution in DMSO (final DMSO concentration was 0.1%) or 50% ethanol (final ethanol concentration was 0.2%). After 1, 4, 8 and 24 hours, 0.5-1.0 mL of incubation medium was removed and stored at −20° C. until analysis (described below). The remaining medium was discarded and cell monolayers were carefully washed two times with ice-cold PBS. Following the last wash, all PBS was carefully removed and 1.0 mL of extraction solution (ice-cold 70% methanol) added. Cells were scrapped off and suspended in the extraction solution, transferred to 2 mL polypropylene microfuge tubes and intracellular contents extracted overnight at −20° C.
Preliminary identification of putative metabolites was conducted by comparing the retention time of observed metabolites in incubation medium and cellular extracts with retention times obtained with chemically synthesized standards using the chromatography conditions described below. Further identification of 2′-C-methyl guanosine nucleotides (mono-, di- and triphosphate) was carried out by incubating cellular extract samples with alkaline phosphatase (10 units for 60 min at 37° C.) and comparing the HPLC retention times of the resulting nucleosides with that of authentic 2′-C-methyl guanosine.
Cellular extracts were prepared by centrifugation at 16,000 RCF using an Eppendorf microcentrifuge (Eppendorf, Model 5415D) for 10 min to remove cellular debris. An aliquot of 5-10 μL of the supernatant was added to 5 mL of EcoLite™ (MP, Irvine, Calif.) liquid scintillation cocktail and radioactivity measured by liquid scintillation counting (LSC) using a Beckman Coulter LS6500 multipurpose liquid scintillation counter (Beckman Instruments, Fullerton, Calif.). The remaining sample was then dried using a Labconco refrigerated centrivap concentrator (Labconco, Kansas City, Mo.). Dry extracts were reconstituted in 120 μL of HPLC-grade water and centrifuged at 16,000 RCF using an Eppendorf microcentrifuge for 10 min. Prior to HPLC analysis (described below), radioactivity of the concentrated extracts was measured by LSC using 5 μL aliquots. Extraction recovery was then determined by comparing total radioactivity in extracts before and after drying. The remaining extract was then analyzed by HPLC with online radioactivity detection using a Flow Scintillation Analyzer Radiomatic™ 515TR. Radioactivity in the separated components was quantified by integrating the peaks using Flo-One™ Software (Perkin Elmer Life Sciences). […]

[1] = rat hepatocytes (Rs458), 1 μM [^14C]-Compound 1, 1 h
[2] = rat hepatocytes (Rs458), 1 μM [^14C]-Compound 1, 8 h
[3] = rat hepatocytes (Rs458), 1 μM [^14C]-Compound 1, 24 h
[4] = rat hepatocytes Rs448, 10 μM [^14C]-2′-C-methyl guanosine, 1 h
[5] = rat hepatocytes Rs448, 10 μM [^14C]-2′-C-methyl guanosine, 4 h
[6] = rat hepatocytes Rs448, 10 μM [^14C]-2′-C-methyl guanosine, 8 h
[7] = rat hepatocytes Rs448, 10 μM [^14C]-2′-C-methyl guanosine, 24 h
[8] = rat hepatocytes Rs458, 1 μM [^14C]-2′-C-methyl guanosine, 1 h
[9] = rat hepatocytes Rs458, 1 μM [^14C]-2′-C-methyl guanosine, 8 h
[10] = rat hepatocytes Rs458, 1 μM [^14C]-2′-C-methyl guanosine, 24 h
[11] = rat hepatocytes Rs458, 10 μM [^14C]-2′-C-methyl guanosine, 1 h
[12] = rat hepatocytes Rs458, 10 μM [^14C]-2′-C-methyl guanosine, 4 h
[13] = rat hepatocytes Rs458, 10 μM [^14C]-2′-C-methyl guanosine, 8 h
[14] = rat hepatocytes Rs458, 10 μM [^14C]-2′-C-methyl guanosine, 24 h

SMILES: C[C@@]1(O)[C@H](O)[C@@H](COP(=O)(O)OP(=O)(O)O)O[C@H]1n1cnc2c(=O)[nH]c(N)nc21 [Compound 6, [(2R)-2-methyl-β-D-ribofuranosyl]guanine 5′-diphosphate]
- metabolites observed in cellular extracts (% of total radioactivity) (rat hepatocytes (Rs448, Rs458), 10 μM [^14C]-Compound 1, 1 h, listed as Compd 6): 11.4% and 12.3%
- metabolites observed in cellular extracts (% of total radioactivity) (rat hepatocytes (Rs448, Rs458), 10 μM [^14C]-Compound 1, 4 h, listed as Compd 6): 13.4% and 16.7%
- metabolites observed in cellular extracts (% of total radioactivity) (rat hepatocytes (Rs448, Rs458), 10 μM [^14C]-Compound 1, 8 h, listed as Compd 6): 12.7% and 16.8%
- metabolites observed in cellular extracts (% of total radioactivity) (rat hepatocytes (Rs448, Rs458), 10 μM [^14C]-Compound 1, 24 h, listed as Compd 6): 15.2% and 14.6%
- 2′-C-methyl guanosine nucleotide levels in cellular extracts (rat hepatocytes (Rs458), 1 μM [^14C]-Compound 1, 0 h): BLD (BLD = below limit of detection (0.02 pmol/million cells))
- 2′-C-methyl guanosine nucleotide levels in cellular extracts [1]: 20.0 pmol/million cells
- metabolites observed in cellular extracts (% of total radioactivity) [1]: 13.0%
- 2′-C-methyl guanosine nucleotide levels in cellular extracts [2]: 41.2 pmol/million cells
- metabolites observed in cellular extracts (% of total radioactivity) [2]: 13.27%
- 2′-C-methyl guanosine nucleotide levels in cellular extracts [3]: 30.0 pmol/million cells
- metabolites observed in cellular extracts (% of total radioactivity) [3]: 18.1%
- 2′-C-methyl guanosine nucleotide levels in cellular extracts (rat hepatocytes Rs448, 10 μM [^14C]-2′-C-methyl guanosine, 0 h): 0 pmol/million cells
- 2′-C-methyl guanosine nucleotide levels in cellular extracts [4]: 7.00 pmol/million cells
- Major metabolites observed in cellular extracts (% of total radioactivity) [4]: 1.24 % of total radioactivity
- 2′-C-methyl guanosine nucleotide levels in cellular extracts [5]: 28.0 pmol/million cells
- Major metabolites observed in cellular extracts (% of total radioactivity) [5]: 3.54 % of total radioactivity
- 2′-C-methyl guanosine nucleotide levels in cellular extracts [6]: 47.0 pmol/million cells
- Major metabolites observed in cellular extracts (% of total radioactivity) [6]: 4.76 % of total radioactivity
- 2′-C-methyl guanosine nucleotide levels in cellular extracts [7]: 101 pmol/million cells
- Major metabolites observed in cellular extracts (% of total radioactivity) [7]: 10.4 % of total radioactivity
- 2′-C-methyl guanosine nucleotide levels in cellular extracts (rat hepatocytes Rs448, 10 μM [^14C]-Compound 1, 0 h): 0 pmol/million cells
- 2′-C-methyl guanosine nucleotide levels in cellular extracts (rat hepatocytes Rs448, 10 μM [^14C]-Compound 1, 1 h): 112 pmol/million cells
- 2′-C-methyl guanosine nucleotide levels in cellular extracts (rat hepatocytes Rs448, 10 μM [^14C]-Compound 1, 4 h): 269 pmol/million cells
- 2′-C-methyl guanosine nucleotide levels in cellular extracts (rat hepatocytes Rs448, 10 μM [^14C]-Compound 1, 8 h): 311 pmol/million cells
- 2′-C-methyl guanosine nucleotide levels in cellular extracts (rat hepatocytes Rs448, 10 μM [^14C]-Compound 1, 24 h): 215 pmol/million cells
- 2′-C-methyl guanosine nucleotide levels in cellular extracts (rat hepatocytes Rs458, 1 μM [^14C]-2′-C-methyl guanosine, 0 h): BLD (BLD = below limit of detection (0.02 pmol/million cells))
- 2′-C-methyl guanosine nucleotide levels in cellular extracts [8]: 0.85 pmol/million cells
- Major metabolites observed in cellular extracts (% of total radioactivity) [8]: 1.50 % of total radioactivity
- 2′-C-methyl guanosine nucleotide levels in cellular extracts [9]: 4.00 pmol/million cells
- Major metabolites observed in cellular extracts (% of total radioactivity) [9]: 5.14 % of total radioactivity
- 2′-C-methyl guanosine nucleotide levels in cellular extracts [10]: 8.00 pmol/million cells
- Major metabolites observed in cellular extracts (% of total radioactivity) [10]: 9.88 % of total radioactivity
- 2′-C-methyl guanosine nucleotide levels in cellular extracts (rat hepatocytes Rs458, 10 μM [^14C]-2′-C-methyl guanosine, 0 h): 0 pmol/million cells
- 2′-C-methyl guanosine nucleotide levels in cellular extracts [11]: 5.60 pmol/million cells
- Major metabolites observed in cellular extracts (% of total radioactivity) [11]: 1.08 % of total radioactivity
- 2′-C-methyl guanosine nucleotide levels in cellular extracts [12]: 28.0 pmol/million cells
- Major metabolites observed in cellular extracts (% of total radioactivity) [12]: 4.01 % of total radioactivity
- 2′-C-methyl guanosine nucleotide levels in cellular extracts [13]: 48.0 pmol/million cells
- Major metabolites observed in cellular extracts (% of total radioactivity) [13]: 5.42 % of total radioactivity
- 2′-C-methyl guanosine nucleotide levels in cellular extracts [14]: 91.0 pmol/million cells
- Major metabolites observed in cellular extracts (% of total radioactivity) [14]: 9.65 % of total radioactivity
- 2′-C-methyl guanosine nucleotide levels in cellular extracts (rat hepatocytes Rs458, 10 μM [^14C]-Compound 1, 0 h): 0 pmol/million cells
- 2′-C-methyl guanosine nucleotide levels in cellular extracts (rat hepatocytes Rs458, 10 μM [^14C]-Compound 1, 1 h): 129 pmol/million cells
- 2′-C-methyl guanosine nucleotide levels in cellular extracts (rat hepatocytes Rs458, 10 μM [^14C]-Compound 1, 4 h): 326 pmol/million cells
